Results reported in paper PMC4269550, “Lead Optimization of a Pyrazole Sulfonamide Series of Trypanosoma bruceiN-Myristoyltransferase Inhibitors: Identification and Evaluation of CNS Penetrant Compounds as Potential Treatments for Stage 2 Human African Trypanosomiasis” (Journal of Medicinal Chemistry, 2014).
Where “and” joins values, the source holds several entries; their conditions need not be identical. Identical values can stand only once. Like-named read-outs stand apart in the source and are kept apart here.

How the values were obtained:
[1] = in vitro; format: cell-based, human; conditions: human; read-out: MRC-5 EC50
[2] = Intrinsic clearance (Cli), mouse liver microsomes; format: in vitro ADME; conditions: Table S1, unit not given
[3] = molecular target: T1, TbNMT (Trypanosoma brucei brucei, UniProt Q388H8); experiment: NMT enzyme inhibition scintillation proximity assay (TbNMT); format: biochemical, T. brucei
T1 sequence (Q388H8 1-446): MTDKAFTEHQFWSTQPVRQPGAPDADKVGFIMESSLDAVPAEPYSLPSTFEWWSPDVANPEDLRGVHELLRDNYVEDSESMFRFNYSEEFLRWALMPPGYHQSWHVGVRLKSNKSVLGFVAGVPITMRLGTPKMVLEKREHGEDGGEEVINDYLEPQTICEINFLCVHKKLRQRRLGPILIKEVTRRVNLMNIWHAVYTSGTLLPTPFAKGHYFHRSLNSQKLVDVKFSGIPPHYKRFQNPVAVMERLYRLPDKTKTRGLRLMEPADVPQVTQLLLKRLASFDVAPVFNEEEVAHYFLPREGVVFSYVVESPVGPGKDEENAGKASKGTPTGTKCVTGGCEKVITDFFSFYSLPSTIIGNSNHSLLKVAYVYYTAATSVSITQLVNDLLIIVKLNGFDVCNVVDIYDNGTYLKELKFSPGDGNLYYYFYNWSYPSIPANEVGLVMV

[4] = test system: T. b. brucei, BSF427, VSG118; experiment: Cell viability assay, trypanosome; format: cell-based
[5] = test system: MRC5, human lung fibroblast cells; experiment: in vitro; format: cell-based
[6] = test system: HsNMT; format: biochemical, human; conditions: for IC50: mean of two or more determinations
[7] = mean of two or more determinations, read-out: TbNMT IC50

| SMILES | EC50 [1] [µM] | Cli (mouse) [2] | IC50 [3, 7] [µM] | EC50 [4] [µM] | EC50 [5] [µM] | EC50 ([4]; Trypanosoma brucei) [µM] | IC50 [3] [µM] | IC50 [6] [µM] | S = IC50 HsNMT/EC50 T. brucei ([6]; selectivity) | S = IC50 HsNMT/EC50 T. brucei [6] |
| --- | --- | --- | --- | --- | --- | --- | --- | --- | --- | --- |
| Cc1nn(C)c(C)c1NS(=O)(=O)c1ccc(-c2ccnc(N3CCNCC3)c2)cc1F [compound 58] | 0.53 | < 0.5 |  |  |  |  |  |  |  |  |
| Cc1nn(C)c(C)c1NS(=O)(=O)c1c(F)cc(-c2ccnc(N3CCNCC3)c2)cc1F [compound 59] |  | < 0.5 | 0.004 | 0.005 | 4.7 |  |  |  |  |  |
| Cc1nn(C)c(C)c1NS(=O)(=O)c1ccc(-c2ccnc(N3CCNC(C)C3)c2)cc1 (stereo not shown) [compound 60] | 0.79 |  |  |  |  | 0.004 |  |  |  |  |
| Cc1nn(C)c(C)c1NS(=O)(=O)c1ccc(-c2ccnc(N3CCNC(c4ccccc4)C3)c2)cc1 (stereo not shown) [compound 61] | > 50 |  |  |  |  | > 10 | 0.8 | 2.46 | < 1 |  |
| Cc1nn(C)c(C)c1NS(=O)(=O)c1ccc(-c2ccnc(N3CC(C)NC(C)C3)c2)cc1 (stereo not shown) [compound 62] | 2.69 |  |  |  |  | 0.03 |  |  |  |  |
| Cc1nn(C)c(C)c1NS(=O)(=O)c1ccc(-c2ccnc(N3CCNC(C(C)C)C3)c2)cc1 (stereo not shown) [compound 63] | 8.16 |  |  |  |  | 0.14 |  |  |  |  |
| Cc1nn(C)c(C)c1NS(=O)(=O)c1ccc(-c2ccnc(N3CCNC(Cc4ccccc4)C3)c2)cc1 (stereo not shown) [compound 64] | > 50 |  |  |  |  | > 10 | 0.11 | 1.51 | < 1 |  |
| Cc1nn(C)c(C)c1N(C(F)F)[S+](=O)([O-])c1c(Cl)cc(CCCN2CCCN(C)CC2)cc1Cl [compound 65] | 0.41 |  |  |  |  | 0.0006 |  |  |  |  |
| Cc1nn(C)c(C)c1N(C(F)F)S(=O)(=O)c1c(Cl)cc(CCCN2CCCNCC2)cc1Cl [compound 66] |  |  |  |  | 0.34 |  |  |  |  |  |
| Cc1nn(C)c(C)c1N(C(F)F)S(=O)(=O)c1c(Cl)cc(CCCCCCn2ccnc2)cc1Cl [compound 67] | 7.2 |  |  |  |  | 0.035 | 0.005 | 0.14 |  | 4 |
| Cc1nn(C)c(C)c1N(C(F)F)[S+](=O)([O-])c1c(Cl)cc(CCCCCCn2ccnc2C)cc1Cl [compound 68] | 0.91 |  |  |  |  | 0.005 |  |  |  |  |
| CCc1nccn1CCCCCCc1cc(Cl)c([S+](=O)([O-])N(c2c(C)nn(C)c2C)C(F)F)c(Cl)c1 [compound 69] | 7.7 |  |  |  |  | 0.15 |  |  |  |  |
| Cc1nn(C)c(C)c1N(C(F)F)S(=O)(=O)c1c(Cl)cc(CCCCCCn2ccnc2C(C)C)cc1Cl [compound 70] | 3.6 |  |  |  |  | 0.27 | 0.025 | 0.5 |  | 2 |
| Cc1nn(C)c(C)c1N(C(F)F)S(=O)(=O)c1c(Cl)cc(CCCOC2CC3CCC(C2)N3C)cc1Cl (stereo not shown) [compound 71] |  |  | 0.002 | 0.01 | 1.5 |  |  | 0.062 | 6 |  |
| Cc1nn(C)c(C)c1N(C(F)F)S(=O)(=O)c1c(Cl)cc(CCCOC2CC3CCC(C2)N3C)cc1Cl (stereo not shown) [compound 72] |  |  |  | 0.0002 | 0.07 |  |  | 0.002 | 10 |  |
| Cc1nn(C)c(C)c1N(C(F)F)S(=O)(=O)c1c(Cl)cc(-c2ccnc(N3CCNCC3)c2)cc1Cl [compound 74] |  |  |  | 0.003 | 0.14 |  |  |  |  |  |
| Cc1nn(C)c(C)c1N(C(F)F)S(=O)(=O)c1c(Cl)cc(CCCOC2CC(C)(C)N(C)C(C)(C)C2)cc1Cl [compound 75] |  |  | 0.01 | 0.064 | 5.3 |  |  | 1.7 | 27 |  |
| Cc1nn(C)c(C)c1N(C(F)F)S(=O)(=O)c1c(Cl)cc(CCCOC2CCC(N(C)C)CC2)cc1Cl (stereo not shown) [compound 76] |  |  | 0.002 | 0.003 | 0.57 |  |  | 0.005 | 2 |  |
| Cc1nn(C)c(C)c1N(C(F)F)S(=O)(=O)c1c(Cl)cc(CCCCCCN2CCOCC2)cc1Cl [compound 79] |  |  | 0.055 | 0.32 | 12.2 |  |  |  |  |  |
| CCN(CC)CCCCCCc1cc(Cl)c(S(=O)(=O)N(c2c(C)nn(C)c2C)C(F)F)c(Cl)c1 [compound 81] |  |  | 0.003 | 0.014 | 2.9 |  |  | 0.042 | 3 |  |
| CCN(C)CCCCCCc1cc(Cl)c(S(=O)(=O)N(c2c(C)nn(C)c2C)C(F)F)c(Cl)c1 [compound 83] |  |  |  |  |  |  |  |  | 3 and 5 |  |
| Cc1nn(C)c(C)c1N(C(F)F)S(=O)(=O)c1c(Cl)cc(CCCCCCN(C)C(C)C)cc1Cl [compound 84] |  |  | 0.003 | 0.038 | 5.1 |  |  | 0.18 | 5 |  |
| Cc1nn(C)c(C)c1N(C(F)F)S(=O)(=O)c1c(Cl)cc(CCCOC[C@@H]2CCCN2)cc1Cl [compound 86] |  |  | 0.002 | 0.006 | 3.3 |  |  | 0.11 | 18 |  |
| Cc1nn(C)c(C)c1N(C(F)F)S(=O)(=O)c1c(Cl)cc(CCCOC[C@H]2CCCN2)cc1Cl [compound 87] |  |  | 0.003 |  | 3.2 |  |  | 0.033 | 7 |  |
| Cc1nn(C)c(C)c1N(C(F)F)S(=O)(=O)c1c(Cl)cc(CCCOC[C@@H]2CCCCN2)cc1Cl [compound 88] |  |  | 0.007 | 0.087 | 5.3 |  |  | 0.84 | 10 |  |
